Measurements taken from the supplement of paper PMC9663587.

Key:
Neratinib/HKI272 [1] = compound: T1, CCOc1cc2ncc(C#N)c(Nc3ccc(OCc4ccccn4)c(Cl)c3)c2cc1NC(=O)/C=C/CN(C)C [Neratinib/HKI272]; experiment: increase in dead-cell fraction, 72 h; higher = more death;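 further: breast cancer cell lines in 384-well plates, stained with Hoechst plus LIVE/DEAD far red dye and imaged, cells above an LDR intensity threshold counted dead, Hoechst-negative corpses included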
[2] = compound: CCc1cnn2c(NCc3ccc[n+]([O-])c3)cc(N3CCCC[C@H]3CCO)nc12; experiment: as above
LEE011/Ribociclib = compound: CN(C)C(=O)c1cc2cnc(Nc3ccc(N4CCNCC4)cn3)nc2n1C1CCCC1 [LEE011/Ribociclib]; experiment: as above
[3] = compound: CCN1CCN(Cc2ccc(Nc3ncc(F)c(-c4cc(F)c5nc(C)n(C(C)C)c5c4)n3)nc2)CC1; experiment: as above
[4] = compound: CC(=O)c1c(C)c2cnc(Nc3ccc(N4CCNCC4)cn3)nc2n(C2CCCC2)c1=O; experiment: as above
Flavopiridol = compound: CN1CC[C@H](c2c(O)cc(O)c3c(=O)cc(-c4ccccc4Cl)oc23)[C@H](O)C1 [Flavopiridol]; experiment: as above
THZ531 = compound: CN(C)C/C=C/C(=O)Nc1ccc(C(=O)N2CCC[C@@H](Nc3ncc(Cl)c(-c4c[nH]c5ccccc45)n3)C2)cc1 [THZ531]; experiment: as above
THZ1 [5] = compound: T2, CN(C)C/C=C/C(=O)Nc1ccc(C(=O)Nc2cccc(Nc3ncc(Cl)c(-c4c[nH]c5ccccc45)n3)c2)cc1 [THZ1]; experiment: as above
YKL-5-124 = compound: C=CC(=O)Nc1ccc(C(=O)Nc2[nH]nc3c2CN(C(=O)N[C@H](CN(C)C)c2ccccc2)C3(C)C)cc1 [YKL-5-124]; experiment: as above
BSJ-03-123 = compound: CC(=O)c1c(C)c2cnc(Nc3ccc(N4CCN(CCOCCOCCOCCNC(=O)COc5cccc6c5C(=O)N(C5CCC(=O)NC5=O)C6=O)CC4)cn3)nc2n(C2CCCC2)c1=O [BSJ-03-123]; experiment: as above
Neratinib/HKI272 [6] = compound: T1, Neratinib/HKI272; experiment: GR value, 72 h; higher = faster growth (1 = untreated, <0 = killing);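 further: breast cancer and non-malignant breast epithelial lines, nine half-log doses, viable cells counted by Hoechst and LIVE/DEAD dye imaging versus time-zero plates and DMSO controls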
THZ1 [7] = compound: T2, THZ1; experiment: as above

SUM159
increase in dead-cell fraction (Neratinib/HKI272 [1]; 0.0003162 µM): -0.005
increase in dead-cell fraction (Neratinib/HKI272 [1]; 0.001 µM): -0.0025
increase in dead-cell fraction (Neratinib/HKI272 [1]; 0.003162 µM): -0.0041
increase in dead-cell fraction (Neratinib/HKI272 [1]; 0.01 µM): -0.0075
increase in dead-cell fraction (Neratinib/HKI272 [1]; 0.03162 µM): -0.0087
increase in dead-cell fraction (Neratinib/HKI272 [1]; 0.1 µM): -0.0118
increase in dead-cell fraction (Neratinib/HKI272 [1]; 0.3162 µM): -0.0133
increase in dead-cell fraction (Neratinib/HKI272 [1]; 1 µM): -0.01
increase in dead-cell fraction (Neratinib/HKI272 [1]; 3.162 µM): -0.004
increase in dead-cell fraction ([2]; 0.0001 µM): -0.0009
increase in dead-cell fraction ([2]; 0.0003162 µM): -0.0008
increase in dead-cell fraction ([2]; 0.001 µM): -0.0012
increase in dead-cell fraction ([2]; 0.003162 µM): 0.0013
increase in dead-cell fraction ([2]; 0.01 µM): 0.0076
increase in dead-cell fraction ([2]; 0.03162 µM): 0.299
increase in dead-cell fraction ([2]; 0.1 µM): 0.226
increase in dead-cell fraction ([2]; 0.3162 µM): 0.238
increase in dead-cell fraction ([2]; 1 µM): 0.246
increase in dead-cell fraction (LEE011/Ribociclib; 0.001 µM): -0.0013
increase in dead-cell fraction (LEE011/Ribociclib; 0.003162 µM): 0.0006
increase in dead-cell fraction (LEE011/Ribociclib; 0.01 µM): 0.0082
increase in dead-cell fraction (LEE011/Ribociclib; 0.03162 µM): 0.013
increase in dead-cell fraction (LEE011/Ribociclib; 0.1 µM): 0.0057
increase in dead-cell fraction (LEE011/Ribociclib; 0.3162 µM): 0.0121
increase in dead-cell fraction (LEE011/Ribociclib; 1 µM): 0.0033
increase in dead-cell fraction (LEE011/Ribociclib; 3.162 µM): 0.0075
increase in dead-cell fraction (LEE011/Ribociclib; 10 µM): 0.0212
increase in dead-cell fraction ([3]; 0.001 µM): -0.0002
increase in dead-cell fraction ([3]; 0.003162 µM): -0.0043
increase in dead-cell fraction ([3]; 0.01 µM): -0.0052
increase in dead-cell fraction ([3]; 0.03162 µM): -0.0042
increase in dead-cell fraction ([3]; 0.1 µM): 0.0006
increase in dead-cell fraction ([3]; 0.3162 µM): 0.0029
increase in dead-cell fraction ([3]; 1 µM): 0.0118
increase in dead-cell fraction ([3]; 3.162 µM): 0.0126
increase in dead-cell fraction ([3]; 10 µM): 0.447
increase in dead-cell fraction ([4]; 0.0003162 µM): 0
increase in dead-cell fraction ([4]; 0.001 µM): 0.0001
increase in dead-cell fraction ([4]; 0.003162 µM): -0.0023
increase in dead-cell fraction ([4]; 0.01 µM): -0.0027
increase in dead-cell fraction ([4]; 0.03162 µM): -0.009
increase in dead-cell fraction ([4]; 0.1 µM): -0.0094
increase in dead-cell fraction ([4]; 0.3162 µM): -0.0078
increase in dead-cell fraction ([4]; 1 µM): -0.0049
increase in dead-cell fraction ([4]; 3.162 µM): -0.0004
increase in dead-cell fraction (Flavopiridol; 0.0001 µM): -0.0034
increase in dead-cell fraction (Flavopiridol; 0.0003162 µM): -0.0008
increase in dead-cell fraction (Flavopiridol; 0.001 µM): -0.0034
increase in dead-cell fraction (Flavopiridol; 0.003162 µM): -0.0003
increase in dead-cell fraction (Flavopiridol; 0.01 µM): -0.0024
increase in dead-cell fraction (Flavopiridol; 0.03162 µM): 0.012
increase in dead-cell fraction (Flavopiridol; 0.1 µM): 0.0436
increase in dead-cell fraction (Flavopiridol; 0.3162 µM): 0.205
increase in dead-cell fraction (Flavopiridol; 1 µM): 0.208
increase in dead-cell fraction (THZ531; 0.0001 µM): 0.0035
increase in dead-cell fraction (THZ531; 0.0003162 µM): -0.0023
increase in dead-cell fraction (THZ531; 0.001 µM): -0.002
increase in dead-cell fraction (THZ531; 0.003162 µM): -0.003
increase in dead-cell fraction (THZ531; 0.01 µM): 0.0062
increase in dead-cell fraction (THZ531; 0.03162 µM): -0.0033
increase in dead-cell fraction (THZ531; 0.1 µM): -0.0055
increase in dead-cell fraction (THZ531; 0.3162 µM): -0.0016
increase in dead-cell fraction (THZ531; 1 µM): 0.0161
increase in dead-cell fraction (THZ1 [5]; 0.0001 µM): -0.005
increase in dead-cell fraction (THZ1 [5]; 0.0003162 µM): -0.0055
increase in dead-cell fraction (THZ1 [5]; 0.001 µM): -0.0004
increase in dead-cell fraction (THZ1 [5]; 0.003162 µM): -0.0006
increase in dead-cell fraction (THZ1 [5]; 0.01 µM): 0.001
increase in dead-cell fraction (THZ1 [5]; 0.03162 µM): 0.0024
increase in dead-cell fraction (THZ1 [5]; 0.1 µM): 0.0084
increase in dead-cell fraction (THZ1 [5]; 0.3162 µM): 0.0412
increase in dead-cell fraction (THZ1 [5]; 1 µM): 0.212
increase in dead-cell fraction (YKL-5-124; 0.001 µM): 0.08
increase in dead-cell fraction (YKL-5-124; 0.003162 µM): 0.19
increase in dead-cell fraction (YKL-5-124; 0.01 µM): 0.247
increase in dead-cell fraction (YKL-5-124; 0.03162 µM): 0.231
increase in dead-cell fraction (YKL-5-124; 0.1 µM): 0.221
increase in dead-cell fraction (YKL-5-124; 0.3162 µM): 0.273
increase in dead-cell fraction (YKL-5-124; 1 µM): 0.246
increase in dead-cell fraction (YKL-5-124; 3.162 µM): 0.332
increase in dead-cell fraction (YKL-5-124; 10 µM): 0.436
increase in dead-cell fraction (BSJ-03-123; 0.001 µM): -0.0023
increase in dead-cell fraction (BSJ-03-123; 0.003162 µM): 0.0027
increase in dead-cell fraction (BSJ-03-123; 0.01 µM): -0.003
increase in dead-cell fraction (BSJ-03-123; 0.03162 µM): 0.0063
increase in dead-cell fraction (BSJ-03-123; 0.1 µM): 0.0055
increase in dead-cell fraction (BSJ-03-123; 0.3162 µM): 0.0076
increase in dead-cell fraction (BSJ-03-123; 1 µM): 0.0134
increase in dead-cell fraction (BSJ-03-123; 3.162 µM): 0.0322
increase in dead-cell fraction (BSJ-03-123; 10 µM): 0.28
GR value (Neratinib/HKI272 [6]; 0.0003162 µM): 1.01 GR
GR value (Neratinib/HKI272 [6]; 0.001 µM): 1.02 GR
GR value (Neratinib/HKI272 [6]; 0.003162 µM): 1.02 GR
GR value (Neratinib/HKI272 [6]; 0.01 µM): 0.994 GR
GR value (Neratinib/HKI272 [6]; 0.03162 µM): 0.96 GR
GR value (Neratinib/HKI272 [6]; 0.1 µM): 0.927 GR
GR value (Neratinib/HKI272 [6]; 0.3162 µM): 0.851 GR
GR value (Neratinib/HKI272 [6]; 1 µM): 0.705 GR
GR value (Neratinib/HKI272 [6]; 3.162 µM): 0.507 GR
GR value (THZ1 [7]; 0.0001 µM): 1.01 GR
GR value (THZ1 [7]; 0.0003162 µM): 0.974 GR
GR value (THZ1 [7]; 0.001 µM): 0.974 GR
GR value (THZ1 [7]; 0.003162 µM): 0.963 GR
GR value (THZ1 [7]; 0.01 µM): 0.99 GR
GR value (THZ1 [7]; 0.03162 µM): 0.955 GR
GR value (THZ1 [7]; 0.1 µM): 0.809 GR
GR value (THZ1 [7]; 0.3162 µM): 0.646 GR
GR value (THZ1 [7]; 1 µM): -0.112 GR
